In patent publication US7968595B2, “Substituted 4-aryl-chromene as activator of caspases and inducer of apoptosis and as antivascular agent and the use thereof” (Cytovia, Inc., priority 2006, dated 2011):

What was measured:
[1] = test system: MX1 human breast cancer tumors; test: In vivo antitumor activity in MX-1 model, single agent; set-up: species or system mice
Method: (§1) MX1 human breast cancer tumors were obtained from the NCI-FCRDC and maintained as tumors in nude mice. Tumor bits were implanted with a trocar into the right mammary area of female nu/nu mice and allowed to grow to an average size of 200-250 mg, about 12 days after being implanted. Animals were randomized and assigned to study groups of 8-10 animals/group. Body weight were determined and tumor size were measured by calipers and converted to volume by the standard formula of Vol=L×W^2/2. Compound 1R was formulated in 7% PEG400/9% Tween80/84% D5W and administered IV via the tail vein at the indicated days and doses. Day 1 of the study was the first day of treatment. Survival time was the number of days for the tumor to reach 1000 mg or death, whichever occurred earliest. Median survival is the median for the group.

[2] = test system: MX1 human breast cancer tumors; test: In vivo antitumor activity in MX-1 model, combination with cisplatin and doxorubicin; set-up: species or system mice; conditions: 1R 40 mg/kg, IV
Method: as §1
Mice implanted with MX1 human breast cancer tumors were treated with compound 1R as described in EXAMPLE 11. Cisplatin was administered IP whereas doxorubicin was administered IV at the indicated doses.

HCT116 = test: Inhibition of cell proliferation (GI50), HCT116; assay type: cell-based; conditions: Homo sapiens, HCT-116; HCT116 cells, 72 h, CellTiter-Glo
Method: Human breast cancer cells MX-1 and MDAMB435, hepatocarcinoma cells SNU398, colon cancer cells HCT116 and HeLa cells were grown and harvested as in Example 7. An aliquot of […] of cells (4.4×10^4 cells/mL) was added to a well of a 96-well microtiter plate containing 5 μL of a 10% DMSO in RPMI-1640 media solution containing 10 nM to 100 μM of R(−)-2,7,8-triamino-4-(3-bromo-4,5-dimethoxy-phenyl)-3-cyano-4H-chromene (1 nM to 10 μM final). An aliquot of 45 μL of cells was added to a well of a 96-well microtiter plate containing 5 μL of a 10% DMSO in RPMI-1640 media solution without compound as the control sample for maximal cell proliferation (LMax). The samples were mixed by agitation and then incubated at 37° C. for 72 h in a 5% CO2−95% humidity incubator. After incubation, the samples were removed from the incubator and 25 μL of CellTiter-Glo™ reagent (Promega) was added. The samples were mixed by agitation and incubated at room temperature for 10-15 min. Plates were then read using a luminescent plate reader (Model SPECTRAfluor Plus, Tecan) to give Ltest values.
Baseline for GI50 (dose for 50% inhibition of cell proliferation) of initial cell numbers was determined by adding an aliquot of 45 μL of cells or 45 μL of media, respectively, to wells of a 96-well microtiter plate containing 5 μL of a 10% DMSO in RPMI-1640 media solution. […]

HUVEC cells = test: HUVEC tube disruption assay; assay type: cell-based
Method: Aliquots of Matrigel basement membrane matrix (300 μl, BD Biosciences, Mississauga, Ontario, Canada) were added to each well of 24-well plates (Fisher Scientific Ltd, Nepean, Ontario, Canada) and allowed to incubate for 1 h at 37° C. HUVEC cells (3×10^4) were added per well in EGM-2 and incubated for 4 h at 37° C. in a 5% CO2 atmosphere to allow the cells to form tube-like structures. Compound 1R was diluted in DMSO to its respective concentrations, added to cells, and allowed to incubate for 1 h at 37° C. in a 5% CO2 atmosphere. Following the incubation, the medium was gently aspirated and fresh EGM-2 was added and cells were further incubated for 24 h. Miroscopy images were recorded with a Zeiss LSM 510 confocal microscope (Zeiss Canada Ltd, Toronto, Ontario, Canada). The effect of compound 1R on capillary tube disruption was evaluated by light microscopy (×40 magnification) and the results are summarized in Table III.

[3] = day 1, 2, 3 (QD × 3), first study (cisplatin day 2)
[4] = day 1, 8, 15 (QW × 3), second study (cisplatin day 2, 9)
[5] = day 1, 8, 15 (QW × 3), third study (doxorubicin)

Compound `COc1cc([C@H]2C(C#N)=C(N)Oc3c2ccc(N)c3N)cc(Br)c1OC` [Compound 1R, R(−)-2,7,8-triamino-4-(3-bromo-4,5-dimethoxy-phenyl)-3-cyano-4H-chromene] has a Median survival time ([1]; 20 mg/kg IV, once a day for days 1-3 (QD × 3)) of 19 days, a Median survival time ([1]; 20 mg/kg IV, once a day for days 1-5 (QD × 5)) of 46 days and a Median survival time ([1]; 20 mg/kg IV, once a week, day 1, 8, 15 (QW × 3)) of 27.5 days. The Median survival time ([1]; 40 mg/kg IV, once a day for days 1-3 (QD × 3)) was 38 days, the Median survival time ([1]; 40 mg/kg IV, once a day for days 1-5 (QD × 5)) was greater than 100 days and the Median survival time ([1]; 40 mg/kg IV, once a week, day 1, 8, 15 (QW × 3)) was 41 days. For the same compound, the Median survival time ([1]; 60 mg/kg IV, once a day for days 1-3 (QD × 3)) was 78 days, the Median survival time ([1]; 60 mg/kg IV, once a week, day 1, 8, 15 (QW × 3)) was 37.5 days and the Median survival [2, 3] was 38.5 days. For the same compound, the “Number of tumor free mice at day 91” value [2, 3] was 4 of 9, the Median survival [2, 4] was 35 days and the “Number of tumor free mice at day 91” value [2, 4] was 1 of 7. For the same compound, the Median survival [2, 5] was 40 days, the “Number of tumor free mice at day 91” value [2, 5] was 1 of 8 and the GI50 (HCT116) was 19 nM. For the same compound, the “Tube formation % inhibition” value (HUVEC cells; 3.3 nM) was “No inhibition”, the “Lowest concentration that inhibited tube formation” value (HUVEC cells; HUVEC tubes) was 10 nM and the inhibition at 0.01 µM (HUVEC cells; Homo sapiens, HUVEC, 10 nM, read-out: Tube formation % inhibition) was 75%. It also gave an inhibition at 0.03 µM (HUVEC cells; Homo sapiens, HUVEC, 30 nM, read-out: Tube formation % inhibition) of 100% and an inhibition at 0.1 µM (HUVEC cells; Homo sapiens, HUVEC, 100 nM, read-out: Tube formation % inhibition) of 100%.
